{"source": "PubChem BioAssay AID1963450", "about": "(Molecular Pharmacology Branch, DTP, NCI, 2024)", "test_system": "556581-035-R-J1-PDC complex spheroid growth", "assay": "Anticancer human tumor 556581-035-R-J1-PDC patient-derived ovarian carcinoma cell line growth inhibition [Asc]", "details": "for IC50: curve of first compound; for viability, T/C: stronger effect = lower value", "experimental": "Multicellular complex tumor spheroid response to apoptosis pathway targeting inhibitors Alrizomadlin, Pelcitoclax, and Dasminapant in combination with a variety of drugs and investigational agents in selected tumor cell lines\nThe MDM2 inhibitor alrizomadlin, the Bcl-2/Bcl-xL inhibitor pelcitoclax, and the IAPs inhibitor dasminapant were evaluated both individually and in combination with standard of care and investigational anticancer small molecules within a complex spheroid model of solid tumors. . Complex spheroids include a stromal component modeled by human endothelial cells (HUVEC) and fibroblasts modeled by human mesenchymal stem cells (MSCs). The concentration ranges selected for each drug and investigational agent were based upon clinically achievable concentrations if the clinical Cmax of the agent was known.\nCompounds. The drugs and investigational agents: alrizomadlin (APG-115; NSC831270), pelcitoclax (APG-1252; NSC835773), dasminapant (APG-1387;NSC834197), TAK-243 (NSC785004), copanlisib (NSC809693), olaparib (NSC753686), talazoparib (NSC767125), cobimetinib (NSC 768068), eltanexor (KPT-8602, NSC 794443), abemaciclib (NSC 768073), sotorasib (NSC818433), adagrasib (NSC 831453), MRTX-1133 (NSC 836407), Iadademestat (ORY1001, NSC 806812), and RMC-4630 (NSC839698), were obtained from the NCI Developmental Therapeutics Program Chemical Repository. The FDA-approved anticancer drug set is available from the Developmental Therapeutics Program at https://dtp.cancer.gov/organization/dscb/obtaining/available plates.htm. […] The stock solutions were prepared in dimethyl sulfoxide (DMSO, Sigma-Aldrich, St. Louis, MO, cat. D2650) at 800-fold the tested concentration and stored at -70 degrees C prior to their use. All drugs and investigational agents were tested over a range starting from a high concentration at or near the clinical Cmax and decreasing in half-log increments. If the clinical Cmax for an agent had not been determined, the highest concentration tested was 10 microM.\nThe patient-derived cancer (PDC) cell lines include five colon adenocarcinomas: 186277-243-T-J2-PDC, 616215-338-R-J1-PDC, 439559-082-T-J2-PDC, 463943-066-T-J2-PDC, and 519858-162-T-J1-PDC; three pancreatic carcinomas: 323965-272-R-J2-PDC, 521955-158-R6-J3-PDC, and 521955-158-R2-J5-PDC; two uterine sarcomas: 327498-152-R-J2-PDC and 993429-296-R-J1-PDC; two rhabdomyosarcomas: 755483-174-R-J1-PDC and 772245-204-R-J1-PDC; two soft tissue sarcomas: 126254-015-R-J1-PDC and 494315-158-R-J1-PDC; two malignant fibrous histiocytomas: 317291-083-R-J1-PDC and 596521-263-R-J1-PDC; two breast carcinomas: 171881-019-R-J1-PDC and 885512-296-R-J2-PDC; and one ovarian carcinoma: 6556581-035-R-J-PDC were obtained from the NCI PDMR, (https://pdmr.cancer.gov). The established cell lines HSSY-2 synovial sarcoma (RRID:CVCL 8719), SYO-1 synovial sarcoma (RRID:CVCL_7146), MPNST malignant peripheral neural sheath tumor were obtained from the Sloan Kettering Institute. The following established cell lines were purchased from the American Type Culture Collection (ATCC, Manassas, VA), Sor the received from the NCI repository:, PANC-1 pancreatic carcinoma (CRL-1469, RRID:CVCL_0480), OVCAR-5 ovarian carcinoma (RRID:CVCL_1628), OVCAR-8 ovarian carcinoma (RRID:CVCL_1629), , MCF-7 breast carcinoma (CRL-12584, RRID:CVCL_0031), MDA-MB-231 breast carcinoma (CRL-12532, RRID:CVCL_0062), NCI-H1876 small cell lung carcinoma (CRL-5902, RRID:CVCL_1503), NCI-H510A small cell lung carcinoma (HTB-184, RRID:CVCL_1565), NCI-H1417 (CRL-5869, RRID:CVCL_1469), and NCI-H196 small cell lung carcinoma (CRL-5823, RRID:CVCL_1509). Dr. Peter Houghton (Greehey Children's Cancer Research Institute, University of Texas Health Science Center, San Antonio, TX) provided Rh-18 rhabdomyosarcoma (RRID:CVCL_1659). Pooled donor human umbilical vein endothelial cells (HUVEC, Lonza, cat. CC-2519) and human mesenchymal stem cells (hMSC, Lonza, cat. PT-2501) were purchased from Lonza (Walkersville, MD).\nCell Culture. […]", "data": [{"molecule": "NC1CCC(NC2CC2c2ccccc2)CC1", "note": "(stereo not given) + CCN1C(C(=O)NC23CCC(C(=O)O)(CC2)CC3)C(c2cccc(Cl)c2F)C2(C(=O)Nc3cc(Cl)ccc32)C12CCCCC2;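 note: spheroids exposed to agents for 7 days before viability read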", "values": [{"measurement": "IC50", "setting": "second compound 0.03 µM", "value": "> 100", "unit": "nM"}, {"measurement": "IC50", "setting": "second compound 0.0949 µM", "value": "> 100", "unit": "nM"}, {"measurement": "IC50", "setting": "second compound 0.3 µM", "value": "> 100", "unit": "nM"}, {"measurement": "IC50", "setting": "second compound 0.949 µM", "value": "> 100", "unit": "nM"}, {"measurement": "IC50", "setting": "second compound 3 µM", "value": "> 100", "unit": "nM"}, {"measurement": "viability, T/C", "setting": "second compound 0.03 µM, first compound 0.000316 µM", "value": 105, "unit": "%"}, {"measurement": "viability, T/C", "setting": "second compound 0.03 µM, first compound 0.001 µM", "value": 103, "unit": "%"}, {"measurement": "viability, T/C", "setting": "second compound 0.03 µM, first compound 0.00316 µM", "value": 107, "unit": "%"}, {"measurement": "viability, T/C", "setting": "second compound 0.03 µM, first compound 0.01 µM", "value": 98.7, "unit": "%"}, {"measurement": "viability, T/C", "setting": "second compound 0.03 µM, first compound 0.0316 µM", "value": 97.7, "unit": "%"}, {"measurement": "viability, T/C", "setting": "second compound 0.03 µM, first compound 0.1 µM", "value": 84.5, "unit": "%"}, {"measurement": "viability, T/C", "setting": "second compound 0.0949 µM, first compound 0.000316 µM", "value": 113, "unit": "%"}, {"measurement": "viability, T/C", "setting": "second compound 0.0949 µM, first compound 0.001 µM", "value": 105, "unit": "%"}, {"measurement": "viability, T/C", "setting": "second compound 0.0949 µM, first compound 0.00316 µM", "value": 100, "unit": "%"}, {"measurement": "viability, T/C", "setting": "second compound 0.0949 µM, first compound 0.01 µM", "value": 93, "unit": "%"}, {"measurement": "viability, T/C", "setting": "second compound 0.0949 µM, first compound 0.0316 µM", "value": 107, "unit": "%"}, {"measurement": "viability, T/C", "setting": "second compound 0.0949 µM, first compound 0.1 µM", "value": 103, "unit": "%"}, {"measurement": "viability, T/C", "setting": "second compound 0.3 µM, first compound 0.000316 µM", "value": 108, "unit": "%"}, {"measurement": "viability, T/C", "setting": "second compound 0.3 µM, first compound 0.001 µM", "value": 100, "unit": "%"}, {"measurement": "viability, T/C", "setting": "second compound 0.3 µM, first compound 0.00316 µM", "value": 105, "unit": "%"}, {"measurement": "viability, T/C", "setting": "second compound 0.3 µM, first compound 0.01 µM", "value": 100, "unit": "%"}, {"measurement": "viability, T/C", "setting": "second compound 0.3 µM, first compound 0.0316 µM", "value": 97.7, "unit": "%"}, {"measurement": "viability, T/C", "setting": "second compound 0.3 µM, first compound 0.1 µM", "value": 96.6, "unit": "%"}, {"measurement": "viability, T/C", "setting": "second compound 0.949 µM, first compound 0.000316 µM", "value": 107, "unit": "%"}, {"measurement": "viability, T/C", "setting": "second compound 0.949 µM, first compound 0.001 µM", "value": 92.1, "unit": "%"}, {"measurement": "viability, T/C", "setting": "second compound 0.949 µM, first compound 0.00316 µM", "value": 82.9, "unit": "%"}, {"measurement": "viability, T/C", "setting": "second compound 0.949 µM, first compound 0.01 µM", "value": 106, "unit": "%"}, {"measurement": "viability, T/C", "setting": "second compound 0.949 µM, first compound 0.0316 µM", "value": 95.2, "unit": "%"}, {"measurement": "viability, T/C", "setting": "second compound 0.949 µM, first compound 0.1 µM", "value": 96.5, "unit": "%"}, {"measurement": "viability, T/C", "setting": "second compound 3 µM, first compound 0.000316 µM", "value": 85.7, "unit": "%"}, {"measurement": "viability, T/C", "setting": "second compound 3 µM, first compound 0.001 µM", "value": 101, "unit": "%"}, {"measurement": "viability, T/C", "setting": "second compound 3 µM, first compound 0.00316 µM", "value": 89.1, "unit": "%"}, {"measurement": "viability, T/C", "setting": "second compound 3 µM, first compound 0.01 µM", "value": 85.1, "unit": "%"}, {"measurement": "viability, T/C", "setting": "second compound 3 µM, first compound 0.0316 µM", "value": 92.8, "unit": "%"}, {"measurement": "viability, T/C", "setting": "second compound 3 µM, first compound 0.1 µM", "value": 92.7, "unit": "%"}]}]}
